Common to all, as to type: functional
Experiment [1] is described as follows: Growth inhibition of human MiaPaCa cells after 48 hrs by SRB assay. The conditions noted are these: MIA PaCa-2, 48 h. On the technique in general: In SRB staining, fixed cells bind dye roughly in proportion to their protein.
The nature of experiment [2]: Growth inhibition of human IMR32 cells after 48 hrs by SRB assay. The note with it: IMR-32, 48 h.
For experiment [3], the system named is MDA-MB-231. Kind of experiment: Growth inhibition of human MDA-MB-231 cells after 48 hrs by SRB assay. The note with it: MDA-MB-231, 48 h.
The test system of experiment [4] is HeLa. As to the kind of experiment: Growth inhibition of human HeLa cells after 48 hrs by SRB assay.

A value given as a limit tells only on which side of the number the result lay.

A word on the GI50: it is the concentration at which growth is held to half of that of the control. Low values mean more potent growth inhibition, high ones less potent growth inhibition.

`Cc1cc2c(cc1C)C(Cl)=C(/C=N/NC(=O)c1cccc3ccccc13)CCC2`: the concentration for 50% growth inhibition (GI50) in experiment [1] worked out at 4.6 µM; in experiment [2], 3.9 µM; in experiment [3], 0.71 µM; in experiment [4], 1 µM.

With `Cc1ccc(/C=N\NC(=O)C2=C(Cl)c3ccccc3CCC2)cc1`, the 50% growth inhibitory concentration (GI50) is less than 0.01 µM in experiment [1], 0.14 µM in experiment [2], 0.26 µM in experiment [3] and 2.3 µM in experiment [4].

For `COc1cccc(/C=N\NC(=O)C2=C(Cl)c3ccccc3CCC2)c1`, the GI50 in experiment [1] was less than 0.01 µM; in experiment [2] it was less than 0.01 µM; in experiment [3], 0.3 µM; in experiment [4], 15.6 µM.

Regarding `COc1ccc(/C=N\NC(=O)C2=C(Cl)c3ccccc3CCC2)c(OC)c1`, the GI50 is 2.7 µM in experiment [1], 14.9 µM in experiment [2], 0.29 µM in experiment [3] and 38.5 µM in experiment [4].

With `COc1cc(/C=N\NC(=O)C2=C(Cl)c3ccccc3CCC2)cc(OC)c1OC`, the GI50 in experiment [1] is 1.4 µM; in experiment [2], less than 0.01 µM; in experiment [3] it was less than 0.01 µM; in experiment [4] it was 8.2 µM.

Consider `O=C(N/N=C\c1ccc(Cl)cc1)C1=C(Cl)c2ccccc2CCC1`, for which the 50% growth inhibitory concentration (GI50) in experiment [1] is less than 0.01 µM; in experiment [2], 0.14 µM; in experiment [3], 0.26 µM; in experiment [4] it was 2.3 µM.

On to `O=C(N/N=C\c1ccc(F)cc1)C1=C(Cl)c2ccccc2CCC1`, for which the 50% growth inhibitory concentration (GI50) in experiment [1] was less than 0.01 µM; in experiment [2], 0.27 µM; in experiment [3], 0.41 µM; in experiment [4] it was 1.3 µM.

In the case of `O=C(N/N=C\C1=C(Cl)c2ccccc2CCC1)C1=C(Cl)c2ccccc2CCC1`, the GI50 was found to be 1.6 µM in experiment [1], 2.2 µM in experiment [2], 3 µM in experiment [3] and 1 µM in experiment [4].

As to `Cc1cc2c(cc1C)C(Cl)=C(/C=N\NC(=O)C1=C(Cl)c3ccccc3CCC1)CCC2`, the GI50 in experiment [1] was found to be 0.21 µM; in experiment [2], 0.67 µM; in experiment [3], 3.1 µM; in experiment [4] it was 4.5 µM.

In the case of `COc1cc(/C=N\NC(=O)C2=C(Cl)c3cc(C)c(C)cc3CCC2)cc(OC)c1OC`, the GI50 in experiment [1] amounted to 5.8 µM; in experiment [2], 4.1 µM; in experiment [3], 1.2 µM; in experiment [4], 21 µM.

In the case of `Cc1cc2c(cc1C)C(Cl)=C(C(=O)N/N=C\c1ccc(Cl)cc1)CCC2`, the GI50 in experiment [1] is 0.44 µM; in experiment [2] it was 18.3 µM; in experiment [3] it was 0.41 µM; in experiment [4] it was 1.6 µM.

For `Cc1cc2c(cc1C)C(Cl)=C(C(=O)N/N=C\c1ccc(F)cc1)CCC2`, the GI50 in experiment [1] amounted to 0.36 µM; in experiment [2], 3.5 µM; in experiment [3], 0.84 µM; in experiment [4], 2.2 µM.

For `Cc1cc2c(cc1C)C(Cl)=C(C(=O)N/N=C\C1=C(Cl)c3ccccc3CCC1)CCC2`, the GI50 in experiment [1] was 6 µM; in experiment [2] it was 2.4 µM; in experiment [3] it was 7.7 µM; in experiment [4], more than 100 µM.

Turning to `Cc1cc2c(cc1C)C(Cl)=C(/C=N\NC(=O)C1=C(Cl)c3cc(C)c(C)cc3CCC1)CCC2`, the GI50 in experiment [1] was 6 µM; in experiment [2], 59.9 µM; in experiment [3], 78.2 µM; in experiment [4], more than 100 µM.

For the molecule `O=C(N/N=C/C1=C(Cl)c2ccccc2CCC1)c1ccccc1`, the GI50 in experiment [1] was 1 µM; in experiment [2] it was 16.1 µM; in experiment [3], 11.1 µM; in experiment [4] it was more than 100 µM.

In the case of `Cc1ccc(C(=O)N/N=C/C2=C(Cl)c3ccccc3CCC2)cc1`, the concentration for 50% growth inhibition (GI50) in experiment [1] was 10 µM; in experiment [2], 0.3 µM; in experiment [3], 0.71 µM; in experiment [4], 0.3 µM.

Take `COc1cccc(C(=O)N/N=C/C2=C(Cl)c3ccccc3CCC2)c1C`: the concentration for 50% growth inhibition (GI50) in experiment [1] came to 0.7 µM; in experiment [2] it was 26.5 µM; in experiment [3], 0.29 µM; in experiment [4] it was 9.2 µM.

With `COc1cc(C(=O)N/N=C/C2=C(Cl)c3ccccc3CCC2)cc(OC)c1OC`, the GI50 in experiment [1] was 69.3 µM; in experiment [2], 75.6 µM; in experiment [3], 30 µM; in experiment [4], 0.77 µM.

As for `O=C(N/N=C/C1=C(Cl)c2ccccc2CCC1)c1cccc(Cl)c1`, the GI50 is 78.4 µM in experiment [1], 27.3 µM in experiment [2], 16.3 µM in experiment [3] and 19.2 µM in experiment [4].

For `Nc1ccccc1C(=O)N/N=C/C1=C(Cl)c2ccccc2CCC1`, the concentration for 50% growth inhibition (GI50) in experiment [1] is 65.1 µM; in experiment [2] it was 51 µM; in experiment [3], 5 µM; in experiment [4], more than 100 µM.

`O=C(N/N=C/C1=C(Cl)c2ccccc2CCC1)c1ccc([N+](=O)[O-])cc1`: the GI50 in experiment [1] is 2.3 µM; in experiment [2], 26 µM; in experiment [3], 3.8 µM; in experiment [4], more than 100 µM.

With `COc1cc(C(=O)N/N=C/C2=C(Cl)c3ccccc3CCC2)c([N+](=O)[O-])cc1OC`, the GI50 in experiment [1] is 10.9 µM; in experiment [2], 2.7 µM; in experiment [3] it was more than 100 µM; in experiment [4], 1.1 µM.

As for `O=C(N/N=C/C1=C(Cl)c2ccccc2CCC1)c1cccnc1`, the GI50 in experiment [1] was 11.7 µM; in experiment [2], 0.15 µM; in experiment [3] it was 91.7 µM; in experiment [4], 7.5 µM.

Regarding `O=C(N/N=C/C1=C(Cl)c2ccccc2CCC1)c1cccc(I)c1`, the GI50 is 1.6 µM in experiment [1], 7.6 µM in experiment [2], 55.2 µM in experiment [3] and 6.3 µM in experiment [4].

For the molecule `O=C(N/N=C/C1=C(Cl)c2ccccc2CCC1)c1cccc(C(F)(F)F)c1`, the 50% growth inhibitory concentration (GI50) is 5.8 µM in experiment [1], 2 µM in experiment [2], 94.3 µM in experiment [3] and 16.3 µM in experiment [4].

On to `O=C(N/N=C/C1=C(Cl)c2ccccc2CCC1)c1cccc2ccccc12`, for which the GI50 in experiment [1] was 13.6 µM; in experiment [2] it was 9.2 µM; in experiment [3], 12.1 µM; in experiment [4], 4.7 µM.

Regarding `Cc1cc2c(cc1C)C(Cl)=C(/C=N/NC(=O)c1ccccc1)CCC2`, the GI50 in experiment [1] is more than 100 µM; in experiment [2], 1.8 µM; in experiment [3] it was 2.5 µM; in experiment [4], more than 100 µM.

Turning to `Cc1ccc(C(=O)N/N=C/C2=C(Cl)c3cc(C)c(C)cc3CCC2)cc1`, the GI50 in experiment [1] is 28.8 µM; in experiment [2] it was 0.1 µM; in experiment [3], 32.9 µM; in experiment [4], more than 100 µM.

For the molecule `COc1cccc(C(=O)N/N=C/C2=C(Cl)c3cc(C)c(C)cc3CCC2)c1C`, the GI50 in experiment [1] was 2 µM; in experiment [2], 0.17 µM; in experiment [3] it was 10 µM; in experiment [4], 0.3 µM.

As for `COc1cc(C(=O)N/N=C/C2=C(Cl)c3cc(C)c(C)cc3CCC2)cc(OC)c1OC`, the 50% growth inhibitory concentration (GI50) in experiment [1] worked out at 2.3 µM; in experiment [2], 20.9 µM; in experiment [3], 0.46 µM; in experiment [4], 0.76 µM.

Take `Cc1cc2c(cc1C)C(Cl)=C(/C=N/NC(=O)c1cccc(Cl)c1)CCC2`: the concentration for 50% growth inhibition (GI50) in experiment [1] is 33.6 µM; in experiment [2] it was more than 100 µM; in experiment [3] it was 1.93 µM; in experiment [4] it was 0.77 µM.

As for `Cc1cc2c(cc1C)C(Cl)=C(/C=N/NC(=O)c1ccccc1N)CCC2`, the GI50 in experiment [1] was 0.81 µM; in experiment [2], 36.3 µM; in experiment [3], 3.7 µM; in experiment [4], more than 100 µM.

Consider `COc1cc(C(=O)N/N=C/C2=C(Cl)c3cc(C)c(C)cc3CCC2)c([N+](=O)[O-])cc1OC`, for which the GI50 stood at 1.6 µM in experiment [1], 13.8 µM in experiment [2], 0.22 µM in experiment [3] and 2 µM in experiment [4].

Regarding `Cc1cc2c(cc1C)C(Cl)=C(/C=N/NC(=O)c1cccnc1)CCC2`, the GI50 amounted to 1.6 µM in experiment [1], 8.4 µM in experiment [2], 5.4 µM in experiment [3] and 0.65 µM in experiment [4].

Turning to `Cc1cc2c(cc1C)C(Cl)=C(/C=N/NC(=O)c1cccc(I)c1)CCC2`, the GI50 was 4.3 µM in experiment [1], 1.9 µM in experiment [2], 1.2 µM in experiment [3] and more than 100 µM in experiment [4].

Consider `Cc1cc2c(cc1C)C(Cl)=C(/C=N/NC(=O)c1cccc(C(F)(F)F)c1)CCC2`, for which the GI50 in experiment [1] was 12.2 µM; in experiment [2], 7.8 µM; in experiment [3] it was less than 0.01 µM; in experiment [4], 6.8 µM.

`COc1cccc2c1C(=O)c1c(O)c3c(c(O)c1C2=O)C[C@@](O)(C(=O)CO)C[C@@H]3O[C@H]1C[C@H](N)[C@H](O)[C@H](C)O1` [DOXORUBICIN]: the 50% growth inhibitory concentration (GI50) amounted to 0.097 µM in experiment [1], 0.023 µM in experiment [2], 0.085 µM in experiment [3] and 0.073 µM in experiment [4].

In the case of `CC(=O)O[C@H]1C(=O)[C@@]2(C)[C@H]([C@H](OC(=O)c3ccccc3)[C@]3(O)C[C@H](OC(=O)[C@H](O)[C@@H](NC(=O)c4ccccc4)c4ccccc4)C(C)=C1C3(C)C)[C@]1(OC(C)=O)CO[C@@H]1C[C@@H]2O` [PACLITAXEL], the GI50 in experiment [1] amounted to 0.056 µM; in experiment [2], 0.075 µM; in experiment [3], 0.091 µM; in experiment [4], 0.025 µM.
